From patent US20240408114A1, “METHODS FOR PREVENTING AND TREATING ACUTE KIDNEY INJURY” (The Johns Hopkins University, priority 2021, published 2024)

How the values were obtained:
[1] = mouse, in vivo, ip, 1.83 mg/kg
Protocol: (§1) Glutamine antagonist, JHU083 was synthesized as previously described, Rais et al., 2016, and dissolved in 50 mM […] 4-(2-hydroxyethyl)-1-piperazineethanesulfonic acid (HEPES) buffered 0.9% saline. Aliquot stocks were stored at −80° C. and thawed right before injection. Before the IRI surgery or cisplatin injection, mice were administered 1.83 mg/kg JHU083 (equivalent to 1 mg/kg DON) or vehicle (50 mM HEPES buffered 0.9% saline) every other day via intraperitoneal injection. Following 4 consecutive dosages, mice underwent IRI surgery or cisplatin injection. The last additional dose was given at 24 h after IRI or cisplatin injection. This dosage regimen was chosen based on efficiency and toxicity data from a previous study. Hollinger et al., 2020.

[2] = tested on: kidney T cells; assay: T cell phenotypes in normal steady-state kidneys; format: in vivo, mouse; settings: normal mice, same dosage schedule; vs vehicle
Protocol: To test whether this immunologic effect was derived from the glutamine blockade or attenuated kidney injury, we studied normal mice treated with JHU083 or vehicle with the same dosage schedule. […] Therefore, changes seen in these markers in post-ischemic kidneys are likely through JHU083-mediated glutamine blockade.
KMNCs were isolated according to our previously described Percoll density gradient protocol. Ascon et al., 2006. Briefly, decapsulated kidneys were immersed and incubated in collagenase D (2 mg/mL; Sigma-Aldrich) solution for 30 min at 37° C. Samples were strained through 70 µm cell strainer (BD Bioscience, Franklin Lakes, NJ), washed, and resuspended in 40% Percoll (GE Healthcare, Chicago, IL) followed by gentle overlaying onto 80% Percoll. After centrifugation at 1,500 g for 30 min in brake off mode at room temperature, KMNCs were collected from interface between 40% and 80% Percoll. […] Cells were counted on hemocytometer using trypan blue exclusion under a microscope.
Cells were washed once with phosphate buffered saline (PBS) and stained with viability dye Zombie NIR Fixable Viability (BioLegend, San Diego, CA) for 15 min at room temperature. […] Samples were analyzed by 4-laser Aurora spectral flow cytometer (Cytek, Fremont, CA). […]

[3] = tested on: kidney T cells; assay: T cells from post-ischemic kidneys, spectral flow cytometry; format: in vivo, mouse
Protocol: Mice were treated with 1.83 mg/kg of JHU083 or vehicle every other day via intraperitoneal injection and underwent bilateral IRI surgery on day 7 after the initial injection. […] Hollinger et al., 2020. Mice were followed up until 72 h after IRI, and T cells isolated from post-ischemic kidneys were studied (FIG. 14A).
KMNCs were isolated according to our previously described Percoll density gradient protocol. Ascon et al., 2006. Briefly, decapsulated kidneys were immersed and incubated in collagenase D (2 mg/mL; Sigma-Aldrich) solution for 30 min at 37° C. Samples were strained through 70 µm cell strainer (BD Bioscience, Franklin Lakes, NJ), washed, and resuspended in 40% Percoll (GE Healthcare, Chicago, IL) followed by gentle overlaying onto 80% Percoll. After centrifugation at 1,500 g for 30 min in brake off mode at room temperature, KMNCs were collected from interface between 40% and 80% Percoll. Spleens were strained through 40 µm cell strainer (BD Bioscience) and incubated with ammonium-chloride-potassium lysis buffer (Quality Biological, Gaithersburg, MD) for 3 min. Collected cells were washed and resuspended with Roswell Park Memorial Institute (RPMI) 1640 media (Thermo Fisher Scientific, Waltham, MA) containing 5% fetal bovine serum (FBS, Thermo Fisher Scientific). Cells were counted on hemocytometer using trypan blue exclusion under a microscope.
Cells were washed once with phosphate buffered saline (PBS) and stained with viability dye Zombie NIR Fixable Viability (BioLegend, San Diego, CA) for 15 min at room temperature. After washing with Cell Staining Buffer (BioLegend), cells were preincubated with anti-CD16/CD32 Fc receptor blocking antibody (S17011E, BioLegend) for 15 min to prevent nonspecific antibody binding. Subsequently, surface staining was performed in 50 μL of BD horizon™ Brilliant Stain buffer and surface staining antibody cocktail for 30 min at 4° C.: Pacific blue anti-CD44 (IM7, BioLegend), BV510 anti-CD8 (53-6.7, BioLegend), BV570 anti-CD45 (30-F11, BioLegend), BV605 anti-CD69 (H1.2F3, BioLegend), BV650 anti-NK1.1 (PK136, BioLegend), BV711 anti-PD1 (29F.1A12, BioLegend), BV785 anti-TCRβ (H57-597, BioLegend), PE-Cy5.5 anti-CD25 (PC61.5, Thermo Fisher Scientific), APC-R700 anti-CD62L (MEL-14, BD Bioscience), and APC-Fire810 anti-CD4 (GK1.5, BioLegend). Cells were fixed and permeabilized with Foxp3/Transcription Factor Staining kit (Thermo Fisher Scientific) for 30 min at room temperature and washed with permeabilization/wash buffer (Thermo Fisher Scientific). Intracellular staining was conducted in 50 μL of permeabilization/wash buffer with intracellular staining antibody cocktail for 45 min at room temperature: BV421 anti-Ki67 (16A8, BioLegend), Alexa Fluor 488 anti-CPT1a (8F6AE9, Abcam, Cambridge, UK), Alexa Fluor 532 anti-VDAC1 (20B12AF2, Abcam), PerCP-efluor 710 anti-FoxP3 (FJK-16S, Thermo Fisher Scientific), PE anti-GLUT1 (EPR3915, Abcam), Alexa Fluor 594 anti-pS6 (D68F8, Cell Signaling, Danvers, MA), PE-Cy5 anti-HKII (EPR20839, Abcam), PE-Cy7 anti-H3K27me3 (C36B11, Cell Signaling), and Alexa Fluor 647 anti-Tomm20 (EPR15581-54, Abcam). After staining, cells were washed with permeabilization/wash buffer then resuspended in Cell Staining Buffer. Samples were analyzed by 4-laser Aurora spectral flow cytometer (Cytek, Fremont, CA).
as §1, with “This dosage regimen was chosen based on efficiency and toxicity data from a previous study. Hollinger et al., 2020.” left out

[4] = post-ischemic kidneys, vs vehicle

## CCOC(=O)[C@H](CCC(=O)C=[N+]=[N-])NC(=O)[C@@H](N)CC(C)C [JHU083]
[1]
  body weight: no significant differences between groups
[2]
  phenotype of CD4+ and CD8+ T cells in steady-state kidneys: skewed toward naïve phenotypes with lower CD69, CD44, and Ki67 and higher CD62L
[3]; Example 1, FIG. 8, after ischemic AKI, vs vehicle control group
  expression of CD69, CD44, and Ki67 on kidney CD4+ and CD8+ T cells: reduced expression
[3]; post-ischemic kidneys, vehicle 24.9±2.3, P=0.019
  CD69+ among kidney CD8+ T cells: 17.8±1.4%
[3]; post-ischemic kidneys, vehicle 29.0±1.6, P<0.001
  CD62L+ among kidney CD4+ T cells: 42.8±2.2
[3]; post-ischemic kidneys, vehicle 44.9±3.2, P<0.001
  CD62L+ among kidney CD8+ T cells: 63.6±2.8
[3]; post-ischemic kidneys, vehicle 58.7±2.9, P=0.035
  Ki67+ among kidney CD4+ T cells: 50.6±2.1%
[3]; post-ischemic kidneys, vehicle 60.6±2.5, P=0.005
  CD69+ among kidney DN T cells: 72.1±2.5%
[3]; post-ischemic kidneys, vehicle 61.2±4.2, P=0.043
  Ki67+ among kidney CD8+ T cells: 48.4±4.1%
[3]; post-ischemic kidneys, vehicle 61.4±10.7, P=0.001
  CD44+ among kidney CD8+ T cells: 40.9±11.2%
[3]; post-ischemic kidneys, vehicle 67.5±1.7, P<0.001
  CD44+ among kidney CD4+ T cells: 56.3±1.9%
[3]; post-ischemic kidneys, vehicle 78.7±3.0, P=0.001
  Ki67+ among kidney DN T cells: 91.2±1.1%
[3]; post-ischemic kidneys, vehicle 94.4±2.4, P=0.038
  CD44+ among kidney DN T cells: 96.4±1.2%
[3]; [4]
  levels of the other metabolic enzymes in kidney T cells: comparable between groups
  proportions of CD4+, CD8+, DN T cells among total T cells and Tregs among CD4+ T cells: comparable between groups
[3]; post-ischemic kidneys, vs vehicle-treated mice
  pS6 and HKII expression in kidney T cells: enhanced
[3]; vs vehicle
  number of total T cells in post-ischemic kidneys: reduced
